Reference: patent US20240122179A1, “AUXINIC HERBICIDES AND METHODS OF USE THEREOF” (CORTEVA AGRISCIENCE LLC, priority 2021, published 2024)
Like-named read-outs stand apart in the source and are kept apart here.

What was measured:
Assay in all cases: Postemergence herbicide evaluation, percent reduction in plant size vs untreated control, 21 days after treatment
Amaranthus rudis (AMATA) = assay type: in vivo, Amaranthus rudis (tall water hemp); details: Amaranthus tuberculatus, post-emergence, 504 h, AMATA, postemergence, read-out: Control/Injury; for pest or weed control at 140 g/ha: rate 140 g ae/ha; for pest or weed control at 280 g/ha: rate 280 g ae/ha
Procedure: (§1) Plants were grown in a soil media composed of 90% by volume Promix BX (Premier Tech Horticulture, Quakertown, PA) and 10% Profile Greens Grade (Profile Products LLC, Buffalo Grove, IL). Promix BX contains approximately 83% Sphagnum Peat Moss, 13% Perlite, 5% vermiculite, and proprietary amounts of limestone, starter fertilizer, and wetting agent. Profile Greens Grade is a sand-sized granule formed from calcining illite and montmorillonite clay. Several seeds of each species were planted in 10 cm square pots and top watered twice daily. Plant material was propagated in a warm greenhouse with temperature ranging from 25 to 28° C. and 50 to 60% relative humidity at the Corteva Global Headquarters (Indianapolis, Indiana, USA). Natural light was supplemented with 1000-watt metal halide overhead lamps with an average illumination of 500 μE m^−2 s^−1 photosynthetic active radiation for 16 consecutive hours each day. Plants were top-watered prior to herbicide application and sub-watered after herbicide application.
(§2) Appropriate amounts of test materials were weighed out into glass vials in their technical form to deliver either 140 or 280 g acid equivalent (ae)/ha. The samples were dissolved in 3 ml of Solvent 1. Solvent 1 is 97% acetone and 3% dimethyl sulfoxide and serves as a general-purpose solvent (GPS) for dissolving technical materials. […] The samples were then diluted to their final concentration using 17 ml of solvent 2 for a total of 20 ml of spray solution. Solvent 2 contains 41.58% GPS, 45.53% water, 11.88% isopropyl alcohol, 0.99% crop oil concentrate and 0.02% Trition X-155 surfactant. All percentages are listed on a volume basis. Dicamba diglycolamine was applied as a formulated herbicide, Clarity™ and diluted with solvent 2 to compare all materials in the same spray solution.
(§3) Herbicide applications were made to 3 to 4 replicates of each plant species at the 2 to 8 leaf stage, depending on the species. Treatments were applied with a research track-sprayer (Generation III Research Sprayer manufactured by DeVries Manufacturing in Hollandale, MN, USA) calibrated to deliver a spray volume of 187 L/ha. The track-sprayer was fitted with an 8003E nozzle from Spray Systems Company (North Avenue and Schmale Road, P.O. Box 7900, Wheaton, IL 60187), and used a spray pressure of 276 kPa pressure and a speed of 3.1 km/h. The nozzle height was 46 cm above the plant canopy. The experimental design used for the trials was a randomized complete block with 3 or 4 replications per treatment. After application, plants were placed on carts according to the randomization and returned to the greenhouse. Plants were sub-watered after treatment with Indianapolis city water or fertilized three times a week with a commercial fertilizer solution (Jack's Professional 15-5-15 4 Ca 2 Mg fertilizer (manufactured by JR PETERS INC., 6656 Grant Way, Allentown, PA 18106; www.jrpeters.com). Percent visual control assessments were made on a scale of 0 to 100% (where 0 was no control and 100 was complete plant death) at 7, 14, and 21 days after treatment.
(§4) In conformity with the methods outlined in Example 49, the effect of representative experimental compounds on the growth of Amaranthus rudis (AMATA), common name tall water hemp, was determined at 2 different levels (respectively, 140 and 280 g acid equivalent (ae)/ha) of the experimental actives tested. Plants were treated with one of the compounds, a control plant was not treated. Twenty-one days after treatment, the plants were measured. The data is present as a percent reduction in plant size relative to the untreated control.

[1] = test system: Ambrosia artemisiifolia (AMBEL); assay type: in vivo, Ambrosia artemisiifolia (common ragweed); details: post-emergence, 504 h, AMBEL, postemergence, read-out: Control/Injury; for pest or weed control at 140 g/ha: rate 140 g ae/ha; for pest or weed control at 280 g/ha: rate 280 g ae/ha
Procedure: as §1, §2, §3
as §4, with “Ambrosia artemisiifolia (AMBEL), (common ragweed),” for “Amaranthus rudis (AMATA), common name tall water hemp,”

Kochia scoparia (KCHSC) = assay type: in vivo; details: Bassia scoparia, post-emergence, 504 h, KCHSC, postemergence, read-out: Control/Injury; for pest or weed control at 140 g/ha: rate 140 g ae/ha; for pest or weed control at 280 g/ha: rate 280 g ae/ha
Procedure: as §1, §2, §3
as §4, with “Kochia scoparia (KCHSC)” for “Amaranthus rudis (AMATA), common name tall water hemp,”

[2] = test system: Amaranthus palmeri (AMAPA); assay type: in vivo, Amaranthus palmeri (Palmer amaranth); details: post-emergence, 504 h, postemergence, read-out: Control/Injury; for pest or weed control at 140 g/ha: rate 140 g ae/ha; for pest or weed control at 280 g/ha: rate 280 g ae/ha
Procedure: as §1, §2, §3
as §4, with “palmeri (AMAPA),” for “rudis (AMATA),”, “name, Palmer amaranth,” for “name tall water hemp,”

[3] = test system: Conyza canadensis (L.) (ERICA); assay type: in vivo, Conyza canadensis (L.) (Horseweed); details: Erigeron canadensis, post-emergence, 504 h, ERICA, postemergence, read-out: Control/Injury; for pest or weed control at 140 g/ha: rate 140 g ae/ha; for pest or weed control at 280 g/ha: rate 280 g ae/ha
Procedure: as §1, §2, §3
as §4, with “Conyza canadensis (L.), (ERICA),” for “Amaranthus rudis (AMATA),”, “name, Horseweed,” for “name tall water hemp,”

[4] = percent reduction vs untreated, 21 days after treatment
[5] = R-AMAPA, percent reduction vs untreated control, 21 days after treatment
[6] = percent reduction vs untreated control, 21 days after treatment

SMILES	pest or weed control at 140 g/ha (Amaranthus rudis (AMATA)) [%]	pest or weed control at 280 g/ha (Amaranthus rudis (AMATA)) [%]	pest or weed control at 140 g/ha [1] [%]	pest or weed control at 280 g/ha [1] [%]	pest or weed control at 140 g/ha (Kochia scoparia (KCHSC); [4]) [%]	pest or weed control at 280 g/ha (Kochia scoparia (KCHSC); [4]) [%]	pest or weed control at 140 g/ha ([2]; AMAPA) [%]	pest or weed control at 280 g/ha ([2]; AMAPA) [%]	pest or weed control at 140 g/ha [3] [%]	pest or weed control at 280 g/ha [3] [%]	pest or weed control at 140 g/ha [2, 5] [%]	pest or weed control at 280 g/ha [2, 5] [%]	pest or weed control at 140 g/ha [3, 4] [%]	pest or weed control at 280 g/ha [3, 4] [%]	pest or weed control at 140 g/ha (Kochia scoparia (KCHSC)) [%]	pest or weed control at 280 g/ha (Kochia scoparia (KCHSC)) [%]	pest or weed control at 140 g/ha [3, 6] [%]	pest or weed control at 280 g/ha [3, 6] [%]
COc1c(Cl)ccc(Cl)c1C(=O)NOC1CCCCO1 (stereo not drawn) [Compound A-100]	0	19	5	20	0	0	0	15	8	13	–	–	–	–	–	–	–	–
COc1c(Cl)ccc(Cl)c1C(=O)Oc1ncn(-c2ccccc2)n1 [Compound A-121]	75	94	88	98	83	96	75	85	97	99	–	–	–	–	–	–	–	–
COc1c(Cl)ccc(Cl)c1C(=O)O/N=C(\N)CCCC/C(N)=N/OC(=O)c1c(Cl)ccc(Cl)c1OC [Compound A-145]	60	64	88	96	94	91	–	–	–	–	55	65	83	78	–	–	–	–
COc1c(Cl)ccc(Cl)c1C(=O)NOc1ccccc1 [Compound A-124]	3	10	20	28	0	0	4	3	0	3	–	–	–	–	–	–	–	–
COc1c(Cl)ccc(Cl)c1C(=O)ONC(N)=O [Compound A-67]	0	2	3	3	–	–	–	–	–	–	13	10	–	–	3	2	2	3
COc1c(Cl)ccc(Cl)c1C(=O)NN1CCOCC1 [Compound A-127]	30	35	30	63	3	5	20	23	18	13	–	–	–	–	–	–	–	–
COc1c(Cl)ccc(Cl)c1C(=O)ONC(C)=O [Compound A-68]	23	40	55	58	–	–	–	–	–	–	42	52	–	–	58	82	8	23
CCN(CC)C(=O)c1c(Cl)ccc(Cl)c1OC [Compound A-107]	2	18	10	18	0	0	9	18	3	5	–	–	–	–	–	–	–	–
COc1c(Cl)ccc(Cl)c1C(=O)ON(C)C(=O)c1ccccc1 [Compound A-71]	83	80	83	93	–	–	–	–	–	–	70	82	–	–	85	87	85	92
